The values below are quoted from earlier work in US6683169B2, “Nucleic acid encoding the human peptide histidine transporter 1 and methods of use thereof” (Rutgers, The State University of New Jersey, priority 2000, dated 2004).

Peptide text beside a SMILES is read from it.

This series concerns the target T1, rPHT1 (Rattus norvegicus, UniProt O09014).
T1 construct: host or cells: Xenopus oocytes
To be noted: rPHT1 in Xenopus oocytes; for inhibition of histidine transport: inhibition studies.

T1 sequence (O09014 whole entry): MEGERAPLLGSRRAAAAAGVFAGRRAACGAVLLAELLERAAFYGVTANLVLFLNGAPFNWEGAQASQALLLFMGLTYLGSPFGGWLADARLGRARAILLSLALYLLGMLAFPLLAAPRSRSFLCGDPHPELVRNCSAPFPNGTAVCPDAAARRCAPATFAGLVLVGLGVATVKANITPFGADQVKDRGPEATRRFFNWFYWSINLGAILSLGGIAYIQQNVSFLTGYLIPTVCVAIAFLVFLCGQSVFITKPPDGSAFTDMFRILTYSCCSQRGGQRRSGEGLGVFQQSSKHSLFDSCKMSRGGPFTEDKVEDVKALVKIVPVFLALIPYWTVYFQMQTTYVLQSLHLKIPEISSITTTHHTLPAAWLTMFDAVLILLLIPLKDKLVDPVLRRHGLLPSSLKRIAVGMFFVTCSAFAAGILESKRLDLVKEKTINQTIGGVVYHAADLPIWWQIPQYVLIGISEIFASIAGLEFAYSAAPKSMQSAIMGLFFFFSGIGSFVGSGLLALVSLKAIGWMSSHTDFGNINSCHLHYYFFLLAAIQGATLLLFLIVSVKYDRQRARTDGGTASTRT

Consider `NCC(=O)NCC(=O)NCC(=O)O` [Gly-Gly-Gly] (H-Gly-Gly-Gly-OH), for which the “inhibition of histidine transport” value is on record as “inhibited”. Take `NCC(=O)NCC(=O)O` [Gly-Gly] (H-Gly-Gly-OH): the “inhibition of histidine transport” value is “inhibited”. As for `CC(C)C[C@H](NC(=O)CN)C(=O)O` [Gly-Leu], the “inhibition of histidine transport” value is recorded as “inhibited”.

In the case of `NCCC(=O)N[C@@H](Cc1cnc[nH]1)C(=O)O` [carnosine], the “inhibition of histidine transport” value is on record as “inhibited”. Moreover, where the note is “[3H]carnosine”, the “carnosine uptake versus water-injected control oocytes” value is listed as “significantly higher”.
